# Assays:
# HL-60 cells [1] = assay: Cell cycle profile and DNA fragmentation, DAPI flow cytometry; assay type: cell-based, human; details: 72 h
# Protocol: (§1) Asynchronous cultures in the exponential growth phase of MDA-MB-231 and HL-60 cells in 24-well plates were treated with several doses of PND. After 72 h of incubation, cells were centrifuged and treated as in the previous section, fixed, permeabilized and stained with a DNA intercalating fluorophore, 4,6-Diamidino-2-phenylindole (DAPI); those three steps were accomplished by adding to the cells 200 μl of a single nuclear isolation medium (NIM)-DAPI solution (Beckman Coulter). The cell suspension was then incubated for an additional 3 min at room temperature in the dark. The controls included in the series of experiments were similar to those described for the above experiments. Approximately, 20,000 events/cells were collected per sample by using a flow cytometer equipped with a solid state 405 nm laser (Gallios; Beckman Coulter). The acquisition and distribution of cell subpopulations within each cell cycle facets were accomplished by utilizing Kaluza flow cytometry software (Beckman Coulter). Additionally, doublets were effectively eliminated by including a single cells gate in the acquisition cell cycle protocol.
# MDA-MB-231 cells [2] = assay: as above; assay type: cell-based, human; details: 72 h
# Protocol: as §1
# [3] = system: plasmid dsDNA (pCMV-dR8.91); assay: DNA mobility-shift assay (agarose gel); assay type: binding; design: DNA mobility shift: unit of the concentration uncertain; details: for DNA mobility shift: 100 ng plasmid DNA
# Protocol: Typically, an experimental compound intercalating or binding to double stranded (ds) DNA will increase the molecular mass resulting from forming complexes, decreasing its electrophoretic mobility in an agarose gel, as compared with untreated dsDNA. To explore the potential interaction between PND and dsDNA, a DNA mobility-shift assay was conducted. Each reaction mixture was of 10 μl total volume in PBS pH 7.4. Both PND (Sigma-Aldrich) and quinacrine (Sigma-Aldrich) were tested with three individual concentrations of 1 μM, 0.5 μM or 0.25 μM, respectively. To each reaction mixture, 100 ng of plasmid dsDNA (pCMV-dR8.91; Addgene, Cambridge, MA) was added and the mixture was then incubated for 30 min at 37° C. and stopped by adding 2 μl of 6× gel loading buffer and placed on ice. The potential binding interaction between both PND and quinacrine with dsDNA were analyzed by using 1% (w/v) agarose-gel electrophoresis dissolved in TAE buffer (0.04 M Tris base, 0.04 M acetate and 0.001 M EDTA) pH 8.0. To stain the dsDNA complexes, Ethidium bromide was added to the agarose gel throughout the electrophoresis process at a concentration of 0.5 μg/ml. DNA migration was visualized by utilizing a gel documentation system and pictures were captured by using a UV-light transilluminator (Alpha Innotech, San Leandro, CA). The well-known DNA intercalator fluorescent compound, propidium iodide (PI), was included as positive controls at 1 μg per reaction. As a control, untreated plasmid DNA was included to determine its normal electrophoretic mobility in the gel.
# [4] = system: malignancy that was metastatic or unresectable; assay: Open-label dose-escalating study of oral PND in terminally-ill human cancer patients
# HL-60 cells [5] = assay: Mitochondrial membrane potential, JC-1 flow cytometry; assay type: cell-based, human; details: 6 h; vs untreated and solvent treated cells
# Protocol: (§2) After treatment, the cells were harvested and stained with 2 μM of the fluorophore 5,5′,6,6′-tetrachloro-1,1′,3,3′-tetraethylbenzimidazolylcarbocyanine iodide (JC-1) following manufacturer's instructions (MitoProbe; Life Technologies, Grand Island, NY, USA). Cells with healthy polarized mitochondria favour JC-1 to form aggregates, which emit a red signal. […] Similar controls as above were concurrently analysed. Data acquisition and analysis were achieved by using CXP software (Beckman Coulter). Each data point was analysed in triplicate.
# MDA-MB-231 cells [6] = assay: as above; assay type: cell-based, human; details: 6 h; vs untreated and solvent treated cells
# Protocol: as §2
# [7] = concentration-dependent, P<0.0005
smiles,measurement,setting,value
"COC1=CC=C2Nc3cc(Cl)ccc3C(N=C3C=C(CN4CCCC4)C(=O)C(CN4CCCC4)=C3)=C2N1 [PND, 4-[(7-chloro-2-methoxy-1,5-dihydrobenzo[b][1,5]naphthyridin-10-yl)imino]-2,6-bis(pyrrolidin-1-ylmethyl)cyclohexa-2,5-dien-1-one]",decrease of G0/G1 cell subpopulation,HL-60 cells [1],not observed
same,DNA fragmentation (sub-G0/G1 subpopulation),HL-60 cells [1]; [7],significant increase
same,S and G2/M subpopulations,HL-60 cells [1]; vs PBS and untreated controls,decreased
same,G0/G1 cell subpopulation,MDA-MB-231 cells [2],significant decrease
same,DNA fragmentation (sub-G0/G1 subpopulation),MDA-MB-231 cells [2]; [7],significant increase
same,S and G2/M subpopulations,MDA-MB-231 cells [2]; vs PBS and untreated controls,decreased
same,DNA mobility shift,[3]; 0.5 and 0.25 mM,clear reduction in mobility
same,DNA mobility shift,"[3]; 1 (unit uncertain), 30 min 37° C.",marked reduction of migration
same,DNA degradation,[3]; fragments smaller than free supercoiled DNA,did not result in DNA degradation
same,most recent CBC and CMP results,[4]; Case 1,within normal reference ranges
same,study-drug related adverse events,"[4]; Case 1, hilar cholangiocarcinoma",no reports of any study-drug related adverse events
same,survival status,"[4]; Case 1, June 2019, start 20 Dec. 2018, expected survival 2-4 weeks",still alive
same,study-drug related adverse events,"[4]; Case 2, lung cancer stage IV",no reports of study-drug related adverse events
same,survival status,"[4]; Case 2, start 22 Jan. 2019",passed away on 22 Feb. 2019
same,study-drug related adverse events,"[4]; Case 3, ovarian cancer stage IV",no reports of study-drug related adverse events
same,survival status,"[4]; Case 3, start 15 Jan. 2019",passed away on 29 Jan. 2019
same,survival status,"[4]; Case 4, breast cancer stage IV, start 20 Jan. 2019",passed away on 15 Feb. 2019
same,most recent CBC and CMP results,[4]; Case 5,within normal reference ranges
same,study-drug related adverse events,"[4]; Case 5, small cell lung cancer stage IV, cleared within a week",irritation on the skin during the first week of treatment
same,survival status,"[4]; Case 5, June 2019, start 29 Jan. 2019",still alive
same,maximum tolerated dose,"[4]; any patient, up to 500 or 600 mg daily",not reached
same,tolerability,"[4]; five patients, 200-600 mg daily oral",well tolerated
same,"mitochondrial depolarization (Δψm, JC-1)",HL-60 cells [5],significant mitochondrial depolarization
same,"mitochondrial depolarization (Δψm, JC-1)",MDA-MB-231 cells [6],significant mitochondrial depolarization
